From patent publication US9669034B2, “4-aryl-N-phenyl-1,3,5-triazin-2-amines containing a sulfoximine group” (BAYER INTELLECTUAL PROPERTY GMBH, priority 2011, dated 2017) come the findings set out here.

Broadly, the IC50 is the point on the concentration scale where inhibition reaches its midpoint. By thermodynamic solubility is commonly meant the concentration in solution at equilibrium with solid.

Values after ≈ are worked out from the molar mass of the structure shown.

In series [1] the target is human carbonic anhydrase-1 (Homo sapiens (Human), UniProt P00915). Description: Carbonic anhydrase assay, carbonic anhydrase-1. It is filed as biochemical. The note with it: read-out: Inhibition of Carbonic anhydrase-1: IC50. The source says: (§1) 5. Carbonic Anhydrase Assay
Sequence of human carbonic anhydrase-1 (P00915 whole entry): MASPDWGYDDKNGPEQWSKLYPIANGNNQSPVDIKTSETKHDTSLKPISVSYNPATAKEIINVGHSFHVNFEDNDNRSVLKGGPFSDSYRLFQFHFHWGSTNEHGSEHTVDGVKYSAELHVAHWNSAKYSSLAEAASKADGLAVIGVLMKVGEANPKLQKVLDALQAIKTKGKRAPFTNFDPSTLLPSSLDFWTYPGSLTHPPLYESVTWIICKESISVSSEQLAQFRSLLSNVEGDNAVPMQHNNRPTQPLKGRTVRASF
(§2) The principle of the assay is based on the hydrolysis of 4-nitrophenyl acetate by carbonic anhydrases (Pocker & Stone, Biochemistry, 1967, 6, 668), with subsequent photometric determination of the dye product 4-nitrophenolate at 400 nm by means of a 96-channel spectral photometer.
(§3) 2 microL of the test compounds, dissolved in DMSO (100-fold final concentration), in a concentration range of 0.03-10 micromol/L (final), was pipetted as quadruplicates into the wells of a 96-hole microtiter plate. Wells that contained the solvent without test compounds were used as reference values (1. Wells without carbonic anhydrase for correction of the non-enzymatic hydrolysis of the substrate, and 2. Wells with carbonic anhydrase for determining the activity of the non-inhibited enzyme).
(§4) 188 microL of assay buffer (10 millimol/L of Tris/HCl, pH 7.4, 80 millimol/L of NaCl), with or without 3 units/well of carbonic anhydrase-1 [=human carbonic anhydrase-1 (Sigma, #C4396)] in order to determine carbonic anhydrase-1 inhibition or 3 units/well of carbonic anhydrase-2 [=human carbonic anhydrase-2 (Sigma, #C6165)] for measuring carbonic anhydrase-2 inhibition, was pipetted into the wells of the microtiter plate. […] IC50 values were determined by means of a 4 parameter fit.

Series [2] addresses human carbonic anhydrase-2 (Homo sapiens (Human), UniProt P00918). Description: Carbonic anhydrase assay, carbonic anhydrase-2. It is filed as biochemical. To be noted: read-out: Inhibition of Carbonic anhydrase-2: IC50.
Excerpt: as §1, §2, §3, §4

Series [3] can be described thus: Equilibrium shake flask solubility assay. The class given is physicochemical. To be noted: phosphate buffer, pH 6.5, aqueous buffer, thermodynamic from solid, water, pH 6.5, equilibrium shake flask method. On the procedure: 4. Equilibrium Shake Flask Solubility Assay:
The thermodynamic solubility of compounds in water was determined by an equilibrium shake flask method (see for example: E. H. Kerns, L. Di: Drug-like Properties: Concepts, Structure Design and Methods, 276-286, Burlington, Mass., Academic Press, 2008). A saturated solution of the drug was prepared and the solution was mixed for 24 h to ensure that equilibrium was reached. The solution was centrifuged to remove the insoluble fraction and the concentration of the compound in solution was determined using a standard calibration curve.
To prepare the sample, 2 mg solid compound was weighed in a 4 mL glass vial. 1 mL phosphate buffer pH 6.5 was added. The suspension was stirred for 24 hrs at room temperature. The solution was centrifuged afterwards. To prepare the sample for the standard calibration, 2 mg solid sample was dissolved in 30 mL acetonitrile. After sonification the solution was diluted with water to 50 mL. Sample and standards were quantified by HPLC with UV-detection. For each sample two injection volumes (5 and 50 μl) in triplicates were made. Three injection volumes (5 μl, 10 μl and 20 μl) were made for the standard.
Chromatographic Conditions:
The areas of sample- and standard injections as well as the calculation of the solubility value (in mg/l) were determined by using HPLC software (Waters Empower 2 FR).

On to `COc1cc(F)ccc1-c1ncnc(Nc2cccc(CS(C)(=N)=O)c2)n1` (single isomer, unassigned; (+)) [Example 4, (+)-4-(4-Fluoro-2-methoxyphenyl)-N-{3-[(S-methylsulfonimidoyl)methyl]phenyl}-1,3,5-triazin-2-amine], for which the IC50 in series [1] and in series [2] was above 10 µM each time.
Turning to `COc1cc(F)ccc1-c1ncnc(Nc2cccc(CS(C)(=N)=O)c2)n1` (single isomer, unassigned; (-)) [Example 3, (−)-4-(4-Fluoro-2-methoxyphenyl)-N-{3-[(S-methylsulfonimidoyl)methyl]phenyl}-1,3,5-triazin-2-amine], the IC50 in series [1] and in series [2] was above 10 µM in each case. The same compound displayed a solubility (thermodynamic) at 24 h in series [3] of 601 µg/mL (≈ 1550 µM).
